Laboratory results: patent US6352958B1, “Cycloimido-substituted benzofused heterocyclic herbicides” (FMC Corporation, priority 1997, dated 2002)

What was measured:
Type in all cases: in vivo
[1] = system: soybean (Glycine max var. Winchester); assay: Preemergence herbicidal activity, soybean; details: Rate of Application 0.3 Kg/Ha, examined after 12-17 days
[2] = system: wheat (Triticum aestivum var. Lew); assay: Preemergence herbicidal activity, wheat; details: Rate of Application 0.3 Kg/Ha, examined after 12-17 days
[3] = system: field corn (Zea mays var. Pioneer 3732); assay: Preemergence herbicidal activity, corn; details: Rate of Application 0.3 Kg/Ha, examined after 12-17 days
[4] = system: velvetleaf (Abutilon theophrasti); assay: Preemergence herbicidal activity, velvetleaf; details: Rate of Application 0.3 Kg/Ha, examined after 12-17 days
[5] = system: morningglory (Ipomea lacunosa or Ipomea hederacea); assay: Preemergence herbicidal activity, morningglory; details: Rate of Application 0.3 Kg/Ha, examined after 12-17 days
[6] = system: common chickweed (Stellaria media); assay: Preemergence herbicidal activity, chickweed; details: Rate of Application 0.3 Kg/Ha, examined after 12-17 days
[7] = system: common cocklebur (Xanthium strumarium L.); assay: Preemergence herbicidal activity, cocklebur; details: Rate of Application 0.3 Kg/Ha, examined after 12-17 days
[8] = system: blackgrass (Aloepecurus myosuroides); assay: Preemergence herbicidal activity, blackgrass; details: Rate of Application 0.3 Kg/Ha, examined after 12-17 days
[9] = system: green foxtail (Setaria viridis); assay: Preemergence herbicidal activity, green foxtail; details: Rate of Application 0.3 Kg/Ha, examined after 12-17 days
[10] = system: Johnsongrass (Sorghum halepense); assay: Preemergence herbicidal activity, johnsongrass; details: Rate of Application 0.3 Kg/Ha, examined after 12-17 days
[11] = system: soybean (Glycine max var. Winchester); assay: Postemergence herbicidal activity, soybean; details: rate of application 0.3 Kg/Ha, rated after 12-17 days
[12] = system: wheat (Triticum aestivum var. Lew); assay: Postemergence herbicidal activity, wheat; details: rate of application 0.3 Kg/Ha, rated after 12-17 days
[13] = system: field corn (Zea mays var. Pioneer 3732); assay: Postemergence herbicidal activity, corn; details: rate of application 0.3 Kg/Ha, rated after 12-17 days
[14] = system: velvetleaf (Abutilon theophrasti); assay: Postemergence herbicidal activity, velvetleaf; details: rate of application 0.3 Kg/Ha, rated after 12-17 days
[15] = system: morningglory (Ipomea lacunosa or Ipomea hederacea); assay: Postemergence herbicidal activity, morningglory; details: rate of application 0.3 Kg/Ha, rated after 12-17 days
[16] = system: common chickweed (Stellaria media); assay: Postemergence herbicidal activity, chickweed; details: rate of application 0.3 Kg/Ha, rated after 12-17 days
[17] = system: common cocklebur (Xanthium strumarium L.); assay: Postemergence herbicidal activity, cocklebur; details: rate of application 0.3 Kg/Ha, rated after 12-17 days
[18] = system: blackgrass (Aloepecurus myosuroides); assay: Postemergence herbicidal activity, blackgrass; details: rate of application 0.3 Kg/Ha, rated after 12-17 days
[19] = system: green foxtail (Setaria viridis); assay: Postemergence herbicidal activity, green foxtail; details: rate of application 0.3 Kg/Ha, rated after 12-17 days
[20] = system: Johnsongrass (Sorghum halepense); assay: Postemergence herbicidal activity, johnsongrass; details: rate of application 0.3 Kg/Ha, rated after 12-17 days

## Cn1c(C(F)(F)F)cc(=O)n(-c2ccc(Cl)c3cc(NC(=O)OC(C)(C)C)oc23)c1=O [Compound 272]
[1]
  PREEMERGENCE HERBICIDAL ACTIVITY (% CONTROL) SOY: 20%
[2]
  PREEMERGENCE HERBICIDAL ACTIVITY (% CONTROL) WHT: 0%
[3]
  PREEMERGENCE HERBICIDAL ACTIVITY (% CONTROL) CRN: 20%
[4]
  PREEMERGENCE HERBICIDAL ACTIVITY (% CONTROL) ABUTH: 100%
[5]
  PREEMERGENCE HERBICIDAL ACTIVITY (% CONTROL) IPOSS: 70%
[6]
  PREEMERGENCE HERBICIDAL ACTIVITY (% CONTROL) STEME: 100%
[7]
  PREEMERGENCE HERBICIDAL ACTIVITY (% CONTROL) XANPE: 20%
[8]
  PREEMERGENCE HERBICIDAL ACTIVITY (% CONTROL) ALOMY: 70%
[9]
  PREEMERGENCE HERBICIDAL ACTIVITY (% CONTROL) SETVI: 90%
[10]
  PREEMERGENCE HERBICIDAL ACTIVITY (% CONTROL) SORHA: 60%
[11]
  Postemergence herbicidal activity (% control) SOY: 50%
[12]
  Postemergence herbicidal activity (% control) WHT: 30%
[13]
  Postemergence herbicidal activity (% control) CRN: 45%
[14]
  Postemergence herbicidal activity (% control) ABUTH: 100%
[15]
  Postemergence herbicidal activity (% control) IPOSS: 60%
[16]
  Postemergence herbicidal activity (% control) STEME: 50%
[17]
  Postemergence herbicidal activity (% control) XANPE: 50%
[18]
  Postemergence herbicidal activity (% control) ALOMY: 20%
[19]
  Postemergence herbicidal activity (% control) SETVI: 70%
[20]
  Postemergence herbicidal activity (% control) SORHA: 40%

## Cn1c(C(F)(F)F)cc(=O)n(-c2c(F)cc(Cl)c3nc(-c4ccccc4)[nH]c23)c1=O [Compound 375]
[1]
  PREEMERGENCE HERBICIDAL ACTIVITY (% CONTROL) SOY: 80%
[2]
  PREEMERGENCE HERBICIDAL ACTIVITY (% CONTROL) WHT: 30%
[3]
  PREEMERGENCE HERBICIDAL ACTIVITY (% CONTROL) CRN: 90%
[4]
  PREEMERGENCE HERBICIDAL ACTIVITY (% CONTROL) ABUTH: 100%
[5]
  PREEMERGENCE HERBICIDAL ACTIVITY (% CONTROL) IPOSS: 80%
[6]
  PREEMERGENCE HERBICIDAL ACTIVITY (% CONTROL) STEME: 95%
[7]
  PREEMERGENCE HERBICIDAL ACTIVITY (% CONTROL) XANPE: 80%
[8]
  PREEMERGENCE HERBICIDAL ACTIVITY (% CONTROL) ALOMY: 80%
[9]
  PREEMERGENCE HERBICIDAL ACTIVITY (% CONTROL) SETVI: 100%
[10]
  PREEMERGENCE HERBICIDAL ACTIVITY (% CONTROL) SORHA: 95%
[11]
  Postemergence herbicidal activity (% control) SOY: 95%
[12]
  Postemergence herbicidal activity (% control) WHT: 40%
[13]
  Postemergence herbicidal activity (% control) CRN: 90%
[14]
  Postemergence herbicidal activity (% control) ABUTH: 100%
[15]
  Postemergence herbicidal activity (% control) IPOSS: 95%
[16]
  Postemergence herbicidal activity (% control) STEME: 100%
[17]
  Postemergence herbicidal activity (% control) XANPE: 100%
[18]
  Postemergence herbicidal activity (% control) ALOMY: 90%
[19]
  Postemergence herbicidal activity (% control) SETVI: 80%
[20]
  Postemergence herbicidal activity (% control) SORHA: 100%

## CC(Cl)c1cc2c(Cl)cc(F)c(-n3c(=O)cc(C(F)(F)F)n(C)c3=O)c2o1 (stereo not drawn) [Compound 234]
[1]
  PREEMERGENCE HERBICIDAL ACTIVITY (% CONTROL) SOY: 100%
[2]
  PREEMERGENCE HERBICIDAL ACTIVITY (% CONTROL) WHT: 100%
[3]
  PREEMERGENCE HERBICIDAL ACTIVITY (% CONTROL) CRN: 100%
[4]
  PREEMERGENCE HERBICIDAL ACTIVITY (% CONTROL) ABUTH: 100%
[5]
  PREEMERGENCE HERBICIDAL ACTIVITY (% CONTROL) IPOSS: 100%
[6]
  PREEMERGENCE HERBICIDAL ACTIVITY (% CONTROL) STEME: 100%
[7]
  PREEMERGENCE HERBICIDAL ACTIVITY (% CONTROL) XANPE: 100%
[8]
  PREEMERGENCE HERBICIDAL ACTIVITY (% CONTROL) ALOMY: 80%
[9]
  PREEMERGENCE HERBICIDAL ACTIVITY (% CONTROL) SETVI: 100%
[10]
  PREEMERGENCE HERBICIDAL ACTIVITY (% CONTROL) SORHA: 100%
[11]
  Postemergence herbicidal activity (% control) SOY: 100%
[12]
  Postemergence herbicidal activity (% control) WHT: 100%
[13]
  Postemergence herbicidal activity (% control) CRN: 100%
[14]
  Postemergence herbicidal activity (% control) ABUTH: 100%
[15]
  Postemergence herbicidal activity (% control) IPOSS: 100%
[16]
  Postemergence herbicidal activity (% control) STEME: 100%
[17]
  Postemergence herbicidal activity (% control) XANPE: 100%
[18]
  Postemergence herbicidal activity (% control) ALOMY: 100%
[19]
  Postemergence herbicidal activity (% control) SETVI: 100%
[20]
  Postemergence herbicidal activity (% control) SORHA: 100%
